According to ChEMBL document CHEMBL1201862, “PubChem BioAssay data set” (2004):
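96-well plates; 48 h exposure; 5 concentrations. Endpoints by linear interpolation between flanking doses. Not reached: highest tested concentration assigned. GI50: concentration for 50% inhibition of growth.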 Active and inactive are the calls of the source. Cut-off read from the data, not from the text of the source: active = GI50 up to about 1.1 µM and inactive = higher.

Legend:
Assay in all cases: inhibition of tumour cell growth, NCI panel, 48 h
786-0 = test system: 786-0
A498 = test system: A498
A549 = test system: A549
ACHN = test system: ACHN
CCRF-CEM = test system: CCRF-CEM
COLO 205 = test system: COLO 205
DLD-1 = test system: DLD-1
DMS-273 = test system: DMS-273
EKVX = test system: EKVX
HCC 2998 = test system: HCC 2998
HCT-116 = test system: HCT-116
HCT-15 = test system: HCT-15
HL-60 = test system: HL-60
HOP-62 = test system: HOP-62
HOP-92 = test system: HOP-92
HT-29 = test system: HT-29
IGROV-1 = test system: IGROV-1
KM-20L2 = test system: KM-20L2
KM12 = test system: KM12
LOX IMVI = test system: LOX IMVI
LXFL 529 = test system: LXFL 529
M14 = test system: M14
M19-MEL = test system: M19-MEL
MOLT-4 = test system: MOLT-4
Malme-3M = test system: Malme-3M
NCI-H226 = test system: NCI-H226
NCI-H23 = test system: NCI-H23
NCI-H460 = test system: NCI-H460
NCI-H522 = test system: NCI-H522
OVCAR-3 = test system: OVCAR-3
OVCAR-4 = test system: OVCAR-4
OVCAR-5 = test system: OVCAR-5
OVCAR-8 = test system: OVCAR-8
RPMI-8226 = test system: RPMI-8226
SF-268 = test system: SF-268
SF-295 = test system: SF-295
SF-539 = test system: SF-539
SK-MEL-28 = test system: SK-MEL-28
SK-MEL-2 = test system: SK-MEL-2
SK-MEL-5 = test system: SK-MEL-5
SK-OV-3 = test system: SK-OV-3
SN12C = test system: SN12C
SNB-19 = test system: SNB-19
SNB-75 = test system: SNB-75
SNB-78 = test system: SNB-78
SR = test system: SR
SW-620 = test system: SW-620
TK-10 = test system: TK-10
U-251 = test system: U-251
UACC-257 = test system: UACC-257
UACC-62 = test system: UACC-62
UO-31 = test system: UO-31
XF498 = test system: XF498
CAKI-1 = test system: CAKI-1
DMS-114 = test system: DMS-114
K562 = test system: K562
RXF 393 = test system: RXF 393

## CC(C)C(Sc1nc(-c2ccccc2)c(-c2ccccc2)[nH]1)C(=O)NNC(=S)Nc1ccccc1 (stereo not drawn)
786-0
  GI50: 18.2 µM (inactive)
A498
  GI50: 26 µM (inactive)
A549
  GI50: 25.5 µM (inactive)
ACHN
  GI50: 25.1 µM (inactive)
CCRF-CEM
  GI50: 11.6 µM (inactive)
COLO 205
  GI50: 18.5 µM (inactive)
DLD-1
  GI50: 25.8 µM (inactive)
DMS-273
  GI50: 17.7 µM (inactive)
EKVX
  GI50: 23.8 µM (inactive)
HCC 2998
  GI50: 0.0421 µM (active)
HCT-116
  GI50: 22.9 µM (inactive)
HCT-15
  GI50: 17.9 µM
HL-60
  GI50: 20.4 µM (inactive)
HOP-62
  GI50: 24.1 µM (inactive)
HOP-92
  GI50: 15.2 µM (inactive)
HT-29
  GI50: 17.7 µM (inactive)
IGROV-1
  GI50: 18.4 µM (inactive)
KM-20L2
  GI50: 18.4 µM (inactive)
KM12
  GI50: 14.7 µM (inactive)
LOX IMVI
  GI50: 15.9 µM (inactive)
LXFL 529
  GI50: 15.5 µM (inactive)
M14
  GI50: 16.9 µM (inactive)
M19-MEL
  GI50: 18.9 µM (inactive)
MOLT-4
  GI50: 12.1 µM (inactive)
Malme-3M
  GI50: 16.7 µM (inactive)
NCI-H226
  GI50: 16.7 µM (inactive)
NCI-H23
  GI50: 14.8 µM (inactive)
NCI-H460
  GI50: 17.1 µM (inactive)
NCI-H522
  GI50: 8.67 µM (inactive)
OVCAR-3
  GI50: 13.1 µM (inactive)
OVCAR-4
  GI50: 22.5 µM (inactive)
OVCAR-5
  GI50: 16.7 µM (inactive)
OVCAR-8
  GI50: 21.5 µM (inactive)
RPMI-8226
  GI50: 10.9 µM (inactive)
SF-268
  GI50: 24.5 µM (inactive)
SF-295
  GI50: 16 µM (inactive)
SF-539
  GI50: 21.4 µM (inactive)
SK-MEL-28
  GI50: 22.7 µM (inactive)
SK-MEL-2
  GI50: 19.2 µM (inactive)
SK-MEL-5
  GI50: 12.8 µM (inactive)
SK-OV-3
  GI50: 21.5 µM (inactive)
SN12C
  GI50: 17.5 µM (inactive)
SNB-19
  GI50: 41.9 µM (inactive)
SNB-75
  GI50: 19.5 µM (inactive)
SNB-78
  GI50: 25 µM (inactive)
SR
  GI50: 5.61 µM (inactive)
SW-620
  GI50: 15.3 µM (inactive)
TK-10
  GI50: 29.3 µM (inactive)
U-251
  GI50: 15 µM (inactive)
UACC-257
  GI50: 16.9 µM (inactive)
UACC-62
  GI50: 0.857 µM (active)
UO-31
  GI50: 17.8 µM (inactive)
XF498
  GI50: 18.4 µM (inactive)

## NC(=S)N/N=C1/CN(c2ccc(Cl)c(Cl)c2)CC(=O)C1c1nc2ccccc2s1 (stereo not drawn)
786-0
  GI50: > 100 µM (inactive)
A498
  GI50: > 100 µM (inactive)
A549
  GI50: > 100 µM (inactive)
ACHN
  GI50: 93.3 µM (inactive)
CAKI-1
  GI50: > 100 µM (inactive)
CCRF-CEM
  GI50: 66.2 µM (inactive)
COLO 205
  GI50: > 100 µM (inactive)
DLD-1
  GI50: > 100 µM (inactive)
DMS-114
  GI50: 51.8 µM (inactive)
DMS-273
  GI50: > 100 µM (inactive)
EKVX
  GI50: > 100 µM (inactive)
HCC 2998
  GI50: > 100 µM (inactive)
HCT-116
  GI50: 35.6 µM (inactive)
HCT-15
  GI50: > 100 µM
HL-60
  GI50: 68.9 µM (inactive)
HOP-62
  GI50: > 100 µM (inactive)
HOP-92
  GI50: > 100 µM (inactive)
HT-29
  GI50: 81.5 µM (inactive)
IGROV-1
  GI50: > 100 µM (inactive)
K562
  GI50: 43 µM (inactive)
KM-20L2
  GI50: > 100 µM (inactive)
KM12
  GI50: 42.9 µM (inactive)
LOX IMVI
  GI50: 59.6 µM (inactive)
LXFL 529
  GI50: 37.8 µM (inactive)
M14
  GI50: > 100 µM (inactive)
M19-MEL
  GI50: > 100 µM (inactive)
Malme-3M
  GI50: > 100 µM (inactive)
NCI-H226
  GI50: 78.7 µM (inactive)
NCI-H23
  GI50: 45.1 µM (inactive)
NCI-H460
  GI50: > 100 µM (inactive)
NCI-H522
  GI50: 36.1 µM (inactive)
OVCAR-3
  GI50: 67 µM (inactive)
OVCAR-4
  GI50: 92.7 µM (inactive)
OVCAR-5
  GI50: > 100 µM (inactive)
OVCAR-8
  GI50: 76.7 µM (inactive)
RPMI-8226
  GI50: 79.1 µM (inactive)
RXF 393
  GI50: > 100 µM (inactive)
SF-268
  GI50: 46.8 µM (inactive)
SF-295
  GI50: 46.9 µM (inactive)
SF-539
  GI50: 51.5 µM (inactive)
SK-MEL-28
  GI50: 92.3 µM (inactive)
SK-MEL-2
  GI50: > 100 µM (inactive)
SK-MEL-5
  GI50: > 100 µM (inactive)
SK-OV-3
  GI50: > 100 µM (inactive)
SN12C
  GI50: 95.7 µM (inactive)
SNB-19
  GI50: 56.8 µM (inactive)
SNB-75
  GI50: 28.5 µM (inactive)
SNB-78
  GI50: > 100 µM (inactive)
SW-620
  GI50: > 100 µM (inactive)
TK-10
  GI50: > 100 µM (inactive)
U-251
  GI50: 67.1 µM (inactive)
UACC-257
  GI50: 35.2 µM (inactive)
UACC-62
  GI50: 55.7 µM (inactive)
UO-31
  GI50: 38.7 µM (inactive)
XF498
  GI50: > 100 µM (inactive)
